Measurements published in article PMC7601681, “Human Serum Albumin Binds Native Insulin and Aggregable Insulin Fragments and Inhibits Their Aggregation” (Biomolecules, 2020).

Experiments:
[1] = Thioflavin T (ThT) fluorescence aggregation assay; assay type: physicochemical; settings: peptide 0.33 mM with HSA 0.33 mM, phosphate buffer pH 6.0, 7 days at 37.2 °C, then ThT for 3 days, λexc 440 nm, 470–600 nm
Protocol: Insulin, peptides 5 and 6, and HSA (final concentration 0.66 mM), as well as each sample of the mixture of insulin, peptides 5 and 6) (0.33 mM) with HSA (0.33 mM) were incubated in phosphate buffer solution, pH 6.0 (2 mL), for 7 days at a temperature of 37.2 °C. Then, 2 mL of a solution of Thioflavin T ([…] in phosphate buffer, pH 6.0) was added to the samples. Incubation continued for another 3 days. During this time, spectroscopic measurements of all samples were performed in the range of 470–600 nm, excitation wavelength 440 nm. The intensity of fluorescence spectra recorded on the first, second, and third days of incubation for all samples. are shown in the Supplementary Material (Figures S3 and S4).
The fluorescence intensity measurements were carried out using a FLUOROMAX-4 system from Horiba Scientific (Edison, NJ, USA), measurement range of 470–600 nm, excitation wavelength 440 nm.

[2] = Congo Red (CR) UV-Vis aggregation assay; assay type: physicochemical; settings: peptide 1.44 mM with HSA 1.44 mM, phosphate buffer pH 7.2, 7 days at 37.2 °C, then CR 45 μM for 3 days, UV-Vis 400–800 nm
Protocol: Insulin, peptides 5 and 6, and HSA (final concentration 2.88 mM), as well as each sample of the mixture of insulin, peptides 5 and 6) (1.44 mM) with HSA (1.44 mM), were incubated in phosphate buffer solution at pH 7.2 (1 mL) for 7 days at a temperature of 37.2 °C. Then, 1 mL of a solution of Congo Red dye (45 μM in phosphate buffer, pH 7.2) was added to each incubated sample. Incubation continued for another 3 days. During this time, spectroscopic measurements of all the samples were performed in the range of 400–800 nm. The UV-Vis spectra recorded on the first, second, and third days of incubation for all samples are shown in the Supplementary Material (Figures S1 and S2).
The UV-Vis measurements were carried out using a Hitachi spectrophotometer (Hitachi, Tokyo, Japan).

[3] = Circular dichroism (CD) after incubation with HSA; assay type: physicochemical; settings: 0.1 mg/mL, phosphate buffer pH 7.2, measured after 30 min, two and four days of incubation at 37 °C, 190–270 nm
Protocol: Samples were prepared by dissolving 1 mg of the analyzed peptide in phosphate buffer pH 7.2 (10 mL), to a final concentration of 0.1 mg/mL All measurements were carried out at room temperature using a quartz cuvette (1 mm path length, Hellma). The experimental settings were as follows: measurements range, 190–270 nm; data pitch, 5 nm; scanning mode, continuous; scanning speed, 100 nm/min; bandwidth, 3 nm; integration time, 1 s.
The CD spectra were recorded using a Jasco J-1500 instrument (Jasco, Cracow, Poland) and quartz cuvettes with 1 mm optical path lengths. The measurements were acquired in the range of 190–270 nm at ambient temperature by taking points every 5 nm, with a scan rate of 100 nm per min, an integration time of 1 s, and a bandwidth of 4 nm. The samples were prepared in phosphate buffer (0.1 M, pH 7.2) with a final concentration of 0.1 mg/mL.
Circular dichroism (CD) spectroscopy can be a very valuable source of information about differences in the secondary structure of peptides and proteins. It has been shown that all α-helical proteins show a strong minimum at 222 nm and 208–210 nm and a strong maximum at 191–193 nm. In the case of β-sheet protein, a single negative band may be observed in the 210–225 nm wavelength range and a strong positive band in the 190–200 nm wavelength range, although their intensities are noticeably lower than those for α-proteins. The CD spectra recorded for buffered solutions of insulin (4) and hot-spot fragments (5), (6) in the presence of HSA as well as for native insulin are presented in Figure 9a,b. The measurements were performed after 30 min (sample 0), and then after two and four days of incubation at 37 °C.

HSA = target: T1, HSA (Homo sapiens, UniProt P02768); settings: probe trapped inside HSA; cited from earlier work
T1 construct: purchased Sigma-Aldrich
T1 sequence (P02768 25-609): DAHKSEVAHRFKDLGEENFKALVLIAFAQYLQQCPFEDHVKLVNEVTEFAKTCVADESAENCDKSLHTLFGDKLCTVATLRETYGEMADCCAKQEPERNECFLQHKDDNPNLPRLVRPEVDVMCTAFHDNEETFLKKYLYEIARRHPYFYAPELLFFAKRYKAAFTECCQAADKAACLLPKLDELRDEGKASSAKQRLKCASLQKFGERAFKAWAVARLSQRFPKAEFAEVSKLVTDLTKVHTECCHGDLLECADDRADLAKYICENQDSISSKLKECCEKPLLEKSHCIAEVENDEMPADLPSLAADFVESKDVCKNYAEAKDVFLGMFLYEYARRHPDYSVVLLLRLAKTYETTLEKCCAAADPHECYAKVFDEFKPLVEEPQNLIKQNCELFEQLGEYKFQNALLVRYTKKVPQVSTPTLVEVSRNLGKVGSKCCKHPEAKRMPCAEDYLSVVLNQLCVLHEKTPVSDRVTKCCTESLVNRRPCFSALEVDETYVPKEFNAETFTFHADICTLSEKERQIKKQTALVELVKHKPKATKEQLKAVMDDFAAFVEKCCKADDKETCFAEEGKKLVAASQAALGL
Description: The calculated value also confirmed existence of interactions between 2 and HSA with pyrene fragment presented on less polar environment inside protein. […] The binding constants 1.5 ± 0.3 × 10^6 dm^3 ...

[4] = Light microscopy of Congo Red stained aggregates; assay type: physicochemical; settings: CR staining 3 days; for microscopic examination of CR-stained aggregates, in the presence of HSA: peptide 1.44 mM, HSA 0.30 mM, phosphate buffer 0.1 M pH 7.2, 7 days at 37.4 °C; for microscopic examination of CR-stained aggregates, without HSA: phosphate buffer 0.1 M pH 7.2, 7 days at 37 °C
Protocol: Microscopic studies were carried out for samples prepared in phosphate buffer (0.1 M, pH 7.2) incubated for 7 days at 37.4 °C. To 2 mL of H-LYQLENY-OH (5) and H-VEALYL-OH (6) (c = 2.88 mM) solution was added 2 mL of HSA solution (c = 0.60 mM). The final concentration of incubated peptides was equal to c = 1.44 mM, whereas, for plasma protein, it was 0.30 mM. Incubation was also performed for 4 mL of an HSA sample (c = 0.3 mM). After that period, 4 mL of CR solution (c = 45 μM in phosphate buffer, pH 7.2) was added to the all samples, which were incubated for another 3 days at room temperature.
The microscopic assays were performed for samples stained with Congo Red dye. The samples were transferred on a microscopic slide and visualized using a Delta Optical Genetic Pro (Warsaw, Poland) light microscope.

albumins = settings: cited from earlier work
Description: Pyrene and its derivatives are very popular fluorescent markers used to study interactions with HSA [49, 50, 51, 52]. Despite the fact that there is differentiated localization of pyrene derivatives in HSA, these systems are commonly applied as fluorescent probes, due to the high sensitivity of their fine vibronic structure to changes in the environment (the Ham effect) and long fluorescence lifetimes. […] A similar trend was also observed for the complex of ...

Molecule	Thioflavin T assay of HSA complexes: fluorescence intensity [1]	Congo Red assay of HSA complexes: absorbance change [2]	secondary structure / amyloid formation in the presence of HSA by CD [3]	microscopic examination of CR-stained aggregates, in the presence of HSA [4]	microscopic examination of CR-stained aggregates, without HSA [4]	further results
insulin: native human recombinant insulin (Sigma-Aldrich)	no increase in fluorescence intensity	no decrease in absorbance typical for amyloid structures	does not tend to form amyloid fibrils	–	–	–
O=S(=O)(O)c1ccc2ccc3cccc4ccc1c2c34 [PSA, 1-pyrene sulfonic acid]	–	–	–	–	–	binding constant, non-specific binding (HSA): 3.8 × 10^5 dm^3 mol^−1; binding constant, specific receptor site (HSA): 6.5 × 10^6 dm^3 mol^−1
H-VEALYL-OH [VEALYL, H-VEALYL-OH]	no increase in fluorescence intensity	no decrease in absorbance typical for amyloid structures	prevents the formation of amyloid fibrils	significantly less content of fibers characteristic for amyloid deposits	typical amyloid fibers	–
O=C(O)CCCc1ccc2ccc3cccc4ccc1c2c34 [PBA, 4-(1-pyrene)butyric acid]	–	–	–	–	–	affinity for albumin (albumins): weak affinity
c1cc2ccc3cccc4ccc(c1)c2c34 [Pyrene]	–	–	–	–	–	binding constant with albumins (albumins; nonspecific binding, order of magnitude): ~10^4 dm^3 mol^−1
H-LYQLENY-OH [LYQLENY, H-LYQLENY-OH]	no increase in fluorescence intensity	no decrease in absorbance typical for amyloid structures	increase in the amount of the α-helix structure	significantly less content of fibers characteristic for amyloid deposits	typical amyloid fibers	–
